The conditions of data set [1]: human, plasma.
Procedure: (§2) Plasma was spiked resulting in concentrations of 40 μg/ml and stored at 37° C. At time points 0, 15, 30, 45, 60, 120, 180, 240 and 300 min samples of 20 μl were taken. The plasma was immediately mixed for precipitation with the two-fold volume of acetonitrile containing 0.15% (w/v) n-nonyl-β-D-glucopyranoside. Following centrifugation the supernatants were mixed with the two-fold volume of 0.1% (v/v) trifluroacetic acid. Twenty μl of these solutions were analyzed by LC-MS. Chromatography was performed using a gradient with the following eluents: eluent A: water containing 0.06% trifluroacetic acid (v/v), eluent B: acetonitrile/water 80:20 (v/v; with 0.05% trifluoroacetic acid; v/v). A C18 precolumn was used in combination with a C18 separation column (300 Å, 5 μm, 150×1 mm inner diameter) at a flow rate of 30 μl/min. HPLC eluates were ionized by the electrospray technique of a LCQ classic mass spectrometer. Areas of the detected peaks of the peptides of the present invention were measured and used for quantification by external calibration. The calibration curve was linear over a range from 0.5 μg/ml to 250 μg/ml plasma. Half life—defined as the period for a concentration decrease to 50% of the initial concentration—was calculated from the slope of an extrapolated curve plotting the relative peptide concentration at a given time point (logarithm scale) against the incubation time. These experiments allowed the quantitative analysis of peptide concentration in plasma.
The test system of data set [2] is X4-tropic HIV-1 NL4-3. The settings on record: read-out: IC50 NL4-3; P4-CCR5 cells, HIV-1 NL4-3, peptide 2 h before infection, readout three days after infection. The method, boiled down:
(§1)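 P4-CCR5 cells (CD4, CCR5, CXCR4, HIV-1 promoter-driven β-galactosidase) pretreated 2 h with peptide, then infected with virus containing 1 ng p24 antigen and incubated overnight. Cells washed and cultured without peptide; three days post-infection infectivity read by chemiluminescent β-galactosidase assay, in quintuplicate.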

Data set [3] relates to HIV-1 NL4-3 DTV. The conditions noted are these: read-out: IC50 DTV, P4-CCR5 cells, peptide 2 h before infection, readout three days after infection. The method, boiled down: as §1
The conditions of data set [4]: rat, plasma.
Procedure: as §2
The conditions of data set [5]: dog, plasma.
Procedure: as §2
For data set [6] the following is noted: cynomolgus monkey, plasma.
Procedure: as §2

Read-outs that look alike come from different tables or passages of the source. Positions of bridges follow the written chain, without caps; N, C: chain ends. Non-standard residues stand in square brackets, D forms with d. Residues, ends and D or L forms follow the SMILES beside them. Tic = O=C(O)[C@@H]1Cc2ccccc2CN1; dTic = O=C(O)[C@H]1Cc2ccccc2CN1; NMeL = CN[C@@H](CC(C)C)C(=O)O

For orientation: half-life means the time needed for the level to fall by half in the phase considered. A high value points to slow decline. By IC50 is commonly meant the midpoint of a concentration-inhibition curve. Turning to `CC[C@H](C)[C@H](NC(=O)[C@H](C)NC(=O)[C@H](CCC(=O)O)NC(=O)[C@@H](N)CC(C)C)C(=O)N1CCC[C@H]1C(=O)N[C@H]1CSSC[C@@H](C(=O)N[C@@H](Cc2ccccc2)C(=O)N[C@@H](CC(C)C)C(=O)N[C@@H](Cc2ccccc2)C(=O)N[C@@H](CC(N)=O)C(=O)N[C@@H](CCCCN)C(=O)N2CCC[C@H]2C(=O)N[C@@H](Cc2ccccc2)C(=O)N[C@H](C(=O)N[C@@H](Cc2ccccc2)C(=O)O)C(C)C)NC(=O)[C@H]2CCCN2C(=O)[C@@H]2CCCN2C(=O)[C@H]([C@@H](C)CC)NC(=O)[C@H](CO)NC1=O` [VIR-353, LEAIPCSIPpCFLFNKPFVF] (H-LEAIPCSIP[dP]CFLFNKPFVF-OH; disulfide 6-11), the half-life in data set [1] was 4 h; in data set [4], 0.2 h; in data set [5], 15.2 h; in data set [6], 5 h. In addition, the IC50 turned out to be 225 nM in data set [2] and 181 nM in data set [3].

On to `CC[C@H](C)[C@H](NC(=O)[C@H](CC(=O)O)NC(=O)[C@H](CCC(=O)O)NC(=O)[C@@H](N)CC(C)C)C(=O)N1CCC[C@H]1C(=O)N[C@H]1CSSC[C@@H](C(=O)N[C@H](C(=O)N[C@@H](C)C(=O)N[C@@H](Cc2ccccc2)C(=O)N[C@@H](CC(N)=O)C(=O)N[C@@H](CCCCN)C(=O)N2CCC[C@H]2C(=O)N[C@@H](Cc2ccccc2)C(=O)N[C@H](C(=O)N[C@@H](Cc2ccccc2)C(=O)O)C(C)C)C(C)C)NC(=O)[C@H]2CCCN2C(=O)[C@@H]2CCCN2C(=O)[C@H]([C@@H](C)CC)NC(=O)[C@H](CO)NC1=O` [VIR-357, LEDIPCSIPpCVAFNKPFVF] (H-LEDIPCSIP[dP]CVAFNKPFVF-OH; disulfide 6-11), for which the half-life in data set [1] was 23.3 h; in data set [4], 0.6 h; in data set [5], 71.5 h; in data set [6], 13.2 h. In addition, the IC50 in data set [2] is 497 nM; in data set [3] it was 704 nM.

As for `CC[C@H](C)[C@H](NC(=O)[C@H](CCCCN)NC(=O)[C@H](CCC(=O)O)NC(=O)[C@@H](N)CC(C)C)C(=O)N1CCC[C@H]1C(=O)N[C@H]1CSSC[C@@H](C(=O)N[C@H](C(=O)N[C@@H](C)C(=O)N[C@@H](Cc2ccccc2)C(=O)N[C@@H](CC(N)=O)C(=O)N[C@@H](CCCCN)C(=O)N2CCC[C@H]2C(=O)N[C@@H](Cc2ccccc2)C(=O)N[C@H](C(=O)N[C@@H](Cc2ccccc2)C(=O)O)C(C)C)C(C)C)NC(=O)[C@H]2CCCN2C(=O)[C@@H]2CCCN2C(=O)[C@H]([C@@H](C)CC)NC(=O)[C@H](CO)NC1=O` [VIR-358, LEKIPCSIPpCVAFNKPFVF] (H-LEKIPCSIP[dP]CVAFNKPFVF-OH; disulfide 6-11), the half-life was 5.9 h in data set [1], 0.4 h in data set [4], 16 h in data set [5] and 4.7 h in data set [6]. Besides, the IC50 in data set [2] worked out at 706 nM; in data set [3], 944 nM.

With `CC[C@H](C)[C@H](NC(=O)[C@H](C)NC(=O)[C@H](CCC(=O)O)NC(=O)[C@@H](N)CC(C)C)C(=O)N1CCC[C@H]1C(=O)N[C@@H](CCSC)C(=O)NCC(=O)N[C@H](C(=O)N1CCC[C@H]1C(=O)N1CCC[C@@H]1C(=O)N[C@@H](CCC(=O)O)C(=O)N[C@H](C(=O)N1Cc2ccccc2C[C@@H]1C(=O)N[C@@H](Cc1ccccc1)C(=O)N[C@@H](CC(N)=O)C(=O)N[C@@H](CCCCN)C(=O)N1CCC[C@H]1C(=O)N[C@@H](Cc1ccccc1)C(=O)N[C@H](C(=O)N[C@@H](Cc1ccccc1)C(=O)O)C(C)C)C(C)C)[C@@H](C)CC` [VIR-448, LEAIPMGIPpEV(D-Tic)FNKPFVF] (H-LEAIPMGIP[dP]EV[dTic]FNKPFVF-OH), the half-life in data set [1] was 3.1 h; in data set [4] it was 0.2 h; in data set [5], 18 h; in data set [6], 4.5 h. Further, the 50% inhibitory concentration (IC50) in data set [2] is 318 nM; in data set [3] it was 325 nM.

Turning to `CC[C@H](C)[C@H](NC(=O)[C@H](C)NC(=O)[C@H](CCC(=O)O)NC(=O)[C@@H](N)CC(C)C)C(=O)N1CCC[C@H]1C(=O)N[C@@H](CCSC)C(=O)NCC(=O)N[C@H](C(=O)N1CCC[C@H]1C(=O)N1CCC[C@@H]1C(=O)N[C@@H](CCC(=O)O)C(=O)N[C@H](C(=O)N1Cc2ccccc2C[C@H]1C(=O)N[C@@H](Cc1ccccc1)C(=O)N[C@@H](CC(N)=O)C(=O)N[C@@H](CCCCN)C(=O)N1CCC[C@H]1C(=O)N[C@@H](Cc1ccccc1)C(=O)N[C@H](C(=O)N[C@@H](Cc1ccccc1)C(=O)O)C(C)C)C(C)C)[C@@H](C)CC` [VIR-449, LEAIPMGIPpEV(L-Tic)FNKPFVF] (H-LEAIPMGIP[dP]EV[Tic]FNKPFVF-OH), the half-life in data set [1] is 4.8 h; in data set [4], 0.2 h; in data set [5], 42.2 h; in data set [6], 4.2 h. In addition, the IC50 turned out to be 274 nM in data set [2] and 240 nM in data set [3].

Consider `CC[C@H](C)[C@H](NC(=O)[C@H](CCCCN)NC(=O)[C@H](CCC(=O)O)NC(=O)[C@@H](N)CC(C)C)C(=O)N1CCC[C@H]1C(=O)N[C@@H](CCSC)C(=O)N[C@@H](CO)C(=O)N[C@H](C(=O)N1CCC[C@H]1C(=O)N1CCC[C@@H]1C(=O)N[C@@H](CCC(=O)O)C(=O)N[C@H](C(=O)N1Cc2ccccc2C[C@@H]1C(=O)N[C@@H](Cc1ccccc1)C(=O)N[C@@H](CC(N)=O)C(=O)N[C@@H](CCCCN)C(=O)N1CCC[C@H]1C(=O)N[C@@H](Cc1ccccc1)C(=O)N[C@H](C(=O)N[C@@H](Cc1ccccc1)C(=O)O)C(C)C)C(C)C)[C@@H](C)CC` [VIR-454, LEKIPMSIPpEV(D-Tic)FNKPFVF] (H-LEKIPMSIP[dP]EV[dTic]FNKPFVF-OH), for which the half-life in data set [1] is 4.4 h; in data set [4] it was 0.2 h; in data set [5], 15.6 h; in data set [6], 4.4 h. The half-inhibitory concentration (IC50) in data set [2] amounted to 464 nM; in data set [3] it was 1090 nM.

For the compound `CC[C@H](C)[C@H](NC(=O)[C@H](CCCCN)NC(=O)[C@H](CCC(=O)O)NC(=O)[C@@H](N)CC(C)C)C(=O)N1CCC[C@H]1C(=O)N[C@@H](CCSC)C(=O)N[C@@H](CO)C(=O)N[C@H](C(=O)N1CCC[C@H]1C(=O)N1CCC[C@@H]1C(=O)N[C@@H](CCC(=O)O)C(=O)N[C@H](C(=O)N1Cc2ccccc2C[C@H]1C(=O)N[C@@H](Cc1ccccc1)C(=O)N[C@@H](CC(N)=O)C(=O)N[C@@H](CCCCN)C(=O)N1CCC[C@H]1C(=O)N[C@@H](Cc1ccccc1)C(=O)N[C@H](C(=O)N[C@@H](Cc1ccccc1)C(=O)O)C(C)C)C(C)C)[C@@H](C)CC` [VIR-455, LEKIPMSIPpEV(L-Tic)FNKPFVF] (H-LEKIPMSIP[dP]EV[Tic]FNKPFVF-OH), the half-life in data set [1] is 5.8 h; in data set [4] it was 0.3 h; in data set [5], 8.6 h; in data set [6], 6.8 h. The values for the 50% inhibitory concentration (IC50) in data set [2] and in data set [3] were 134 nM and 353 nM, respectively.

On to `CC[C@H](C)[C@H](NC(=O)[C@@H]1CCCN1C(=O)[C@@H](NC(=O)[C@H](CCCCN)NC(=O)[C@H](CCC(=O)O)NC(=O)[C@@H](N)CC(C)C)[C@@H](C)CC)C(=O)NCC(=O)N[C@H](C(=O)N1CCC[C@H]1C(=O)N1CCC[C@@H]1C(=O)N[C@@H](CCC(=O)O)C(=O)N[C@H](C(=O)N1Cc2ccccc2C[C@@H]1C(=O)N[C@@H](Cc1ccccc1)C(=O)N[C@@H](CC(N)=O)C(=O)N[C@@H](CCCCN)C(=O)N1CCC[C@H]1C(=O)N[C@@H](Cc1ccccc1)C(=O)N[C@H](C(=O)N[C@@H](Cc1ccccc1)C(=O)O)C(C)C)C(C)C)[C@@H](C)CC` [VIR-483, LEKIPIGIPpEV(D-Tic)FNKPFVF] (H-LEKIPIGIP[dP]EV[dTic]FNKPFVF-OH), for which the half-life was 2.6 h in data set [1], 0.2 h in data set [4], 6.2 h in data set [5] and 2.2 h in data set [6]. Also, the half-inhibitory concentration (IC50) in data set [2] was 765 nM; in data set [3], 866 nM.

In the case of `CC[C@H](C)[C@H](NC(=O)[C@@H]1CCCN1C(=O)[C@@H](NC(=O)[C@H](CCCCN)NC(=O)[C@H](CCC(=O)O)NC(=O)[C@@H](N)CC(C)C)[C@@H](C)CC)C(=O)NCC(=O)N[C@H](C(=O)N1CCC[C@H]1C(=O)N1CCC[C@@H]1C(=O)N[C@@H](CCC(=O)O)C(=O)N[C@H](C(=O)N1Cc2ccccc2C[C@H]1C(=O)N[C@@H](Cc1ccccc1)C(=O)N[C@@H](CC(N)=O)C(=O)N[C@@H](CCCCN)C(=O)N1CCC[C@H]1C(=O)N[C@@H](Cc1ccccc1)C(=O)N[C@H](C(=O)N[C@@H](Cc1ccccc1)C(=O)O)C(C)C)C(C)C)[C@@H](C)CC` [VIR-484, LEKIPIGIPpEV(L-Tic)FNKPFVF] (H-LEKIPIGIP[dP]EV[Tic]FNKPFVF-OH), the half-life is 5 h in data set [1], 0.2 h in data set [4], 12.4 h in data set [5] and 3.6 h in data set [6]. For the same compound, the values for the IC50 in data set [2] and in data set [3] were 100 nM and 339 nM, respectively.

In the case of `CC[C@H](C)[C@H](NC(=O)[C@H](C)NC(=O)[C@H](CCC(=O)O)NC(=O)[C@H](CC(C)C)NC)C(=O)N1CCC[C@H]1C(=O)N[C@@H](CCSC)C(=O)N[C@@H](CO)C(=O)N[C@H](C(=O)N1CCC[C@H]1C(=O)N1CCC[C@H]1C(=O)N[C@@H](CCC(=O)O)C(=O)N[C@@H](Cc1ccccc1)C(=O)N[C@@H](CC(C)C)C(=O)N[C@@H](Cc1ccccc1)C(=O)NCC(=O)N[C@@H](CCCCN)C(=O)N1CCC[C@H]1C(=O)N[C@@H](Cc1ccccc1)C(=O)N[C@H](C(=O)N[C@@H](Cc1ccccc1)C(=O)O)C(C)C)[C@@H](C)CC` [VIR-512] (H-[NMeL]EAIPMSIPPEFLFGKPFVF-OH), the half-life in data set [1] is 315 h; in data set [4], > 6 h; in data set [5], 48.1 h; in data set [6], 33.6 h. The IC50 in data set [2] came out at 138 nM; in data set [3] it was 615 nM.
